Experiments:
CINC-3 = assay: cytokine/chemokine array (in vitro), CINC-3; assay type: cell-based, rat; conditions: (+) IL-1β 1 nM, Pa5′ 100 μM
Description: (§1) In like manner with Example 4, liver cells were isolated from male Wistar rats by a collagenase perfusion method. The isolated liver cells were suspended in a medium (similar to that in Example 4) at 1.2×10^6 cells/mL, seeded in 35 mm plastic dishes (similar to those in Example 4) (1 mL/dish), and cultured in an incubator with 5% CO2 at 37° C. After 5 hours, the medium was replaced with fresh WE free of any serum and hormone, and the cells were cultured overnight until before use of the cells for an experiment.
(§2) On day 1 after the start of the culture, cells were subjected to replacement with fresh WE free of any serum and hormone, and IL-1β (similar to that in Example 4), and Pa5 extracted with methanol in Example 1 or Pa5′ extracted with methanol in Example 2 were added to the medium. The concentrations of IL-1β, Pa5, and Pa5′ in each medium were 1 nM, 20 μM, and 100 μM, respectively (Table 1). Then, the cells were cultured at 37° C., and the medium was collected 3 hours after the start of the culture. The collected medium was centrifuged for 1 minute at 5000 rpm to remove cellular debris, and the supernatant was used in an assay. The supernatant was preserved at −80° C. until performing the assay.
(§3) The productions of the various inflammatory cytokines/chemokines were measured according to an accompanying protocol using Rat Cytokine Antibody Array (R&D Systems) (http://www.rndsystems.com/product_detail_objectname_ratcytokinearray.aspx) capable of detecting 29 kinds of cytokines/chemokines in Proteome Profiler® Antibody Array. In the measurement, 1 mL of the supernatant of the medium obtained as described above was used.
(§4) In the above-described method, the 29 kinds of the cytokines/chemokines can be detected at once, and chemiluminescence on the filter of Proteome Profiler Antibody Array increases in proportion to the amount of each cytokine/chemokine. Thus, the chemiluminescence on the filter of Proteome Profiler Antibody Array was detected with LAS3000mini (GE Healthcare), subjected to densitometry analysis, and converted into a numeric value. The densitometry analysis was carried out with reference to http://www.hm6.aitai.ne.jp/˜maxcat/imageJ/technique.html#gels (the heading of “Analyzing Electrophoretic Gels”) using ImageJ software.

[1] = tested on: VEGF (VEGF-A/Vasculotropin); assay: cytokine/chemokine array (in vitro), VEGF; assay type: cell-based, rat; conditions: (+) IL-1β 1 nM, Pa5′ 100 μM
Description: as §1, §2, §3, §4

Thymus Chemokine (CXCL7) = assay: cytokine/chemokine array (in vitro), Thymus Chemokine; assay type: cell-based, rat; conditions: Pa5′ 100 μM
Description: as §1, §2, §3, §4

IL-17 = assay: cytokine/chemokine array (in vitro), IL-17; assay type: cell-based, rat; conditions: Pa5′ 100 μM
Description: as §1, §2, §3, §4

sICAM-1 (CD54) = assay: cytokine/chemokine array (in vitro), sICAM-1; assay type: cell-based, rat; conditions: (+) IL-1β 1 nM, Pa5′ 100 μM
Description: as §1, §2, §3, §4

MIG (CXCL9) = assay: cytokine/chemokine array (in vitro), MIG; assay type: cell-based, rat; conditions: (+) IL-1β 1 nM, Pa5′ 100 μM
Description: as §1, §2, §3, §4

Fractalkine (CX3CL1) = assay: cytokine/chemokine array (in vitro), Fractalkine; assay type: cell-based, rat; conditions: Pa5′ 100 μM
Description: as §1, §2, §3, §4

CINC-2α/β = assay: cytokine/chemokine array (in vitro), CINC-2α/β; assay type: cell-based, rat; conditions: (+) IL-1β 1 nM, Pa5′ 100 μM
Description: as §1, §2, §3, §4

[2] = tested on: nitrogen monoxide (NO) production due to IL-1β; assay: NO production inhibitory action in IL-1β-stimulated rat liver cells (Griess method); assay type: cell-based; conditions: IL-1β 1 nM, 8 hours
Description: Liver cells were isolated from male Wistar rats (200 to 250 g, Charles River) by a collagenase perfusion method (collagenase: Wako Pure Chemicals). The isolated liver cells were suspended in a medium at 6×10^5 cells/mL, seeded in 35 mm plastic dishes (Falcon Plastic) (2 mL/dish), and cultured in an incubator with 5% CO2 at 37° C. Williams' Medium E (WE) containing 10% newborn calf serum, HEPES (5 mM), penicillin (100 U/mL), streptomycin (0.1 mg/mL), dexamethasone (10 nM), and insulin (10 nM) was used as the medium. After 5 hours, the medium was replaced with fresh WE free of any serum and hormone, and the cells were cultured overnight until before use of the cells for an experiment.
On day 1 after the start of the culture, cells were subjected to replacement with fresh WE free of any serum and hormone, and recombinant rat IL-1β (purity of 97% or more) (PeproTech, Rocky Hill, N.J., USA), and Pa5 extracted with methanol in Example 1 or negletein in the comparative example were added to the medium. In each medium, the concentration of IL-1β was 1 nM, the concentrations of Pa5 were 5, 10, and 20 μM, and the concentrations of negletein were 10, 20, and 40 μM (FIG. 1). The amount of NO in each medium was measured 8 hours after the addition of IL-1β, and Pa5 or negletein by a Griess method (Green L C et al, Anal Biochem 1982; 126: 131-138). More specifically, the amount of nitrite (stable metabolite of NO) in each medium was measured.
Liver cells originated from rats were cultured in like manner with Example 4. On day 1 after the start of the culture, the cells were subjected to replacement with fresh WE free of any serum and hormone, and recombinant rat IL-1β (similar to that in Example 4) and Pa9 extracted with methanol in Example 3 were added to the medium. In each medium, the concentration of IL-1β was 1 nM, and the concentrations of Pa9 were 10 μM, 50 μM, and 100 μM (FIG. 5). The amount of NO in each medium was measured 8 hours after the addition of IL-1β and Pa9 in like manner with Example 4.

[3] = (+) IL-1β 1 nM, 3 hours, (+) alone = 100.0
[4] = (+) IL-1β 1 nM, medium at 3 hours
[5] = rat liver cells, IL-1β 1 nM, 3 hours

COc1cc(O)c2c(c1O)OC(c1ccccc1)CC2=O (stereo not shown) [Pa5′, 5,8-dihydroxy-7-methoxyflavanone]
CINC-3 (%) (CINC-3; 3 hours, (+) alone = 100.0): 60.8% | CINC-3 chemiluminescence densitometry, Average (CINC-3; medium at 3 hours): 1846.9 | CINC-3 chemiluminescence densitometry, first value (CINC-3; medium at 3 hours): 1849.2 | CINC-3 chemiluminescence densitometry, second value (CINC-3; medium at 3 hours): 1844.7 | VEGF (VEGF-A/Vasculotropin) (%) ([1]; 3 hours, (+) alone = 100.0): 109.7% | VEGF (VEGF-A/Vasculotropin) chemiluminescence densitometry, Average ([1]; medium at 3 hours): 896.7 | VEGF (VEGF-A/Vasculotropin) chemiluminescence densitometry, first value ([1]; medium at 3 hours): 875.1 | VEGF (VEGF-A/Vasculotropin) chemiluminescence densitometry, second value ([1]; medium at 3 hours): 918.4 | Thymus Chemokine (CXCL7) (%) (Thymus Chemokine (CXCL7); [3]): 23.1% | Thymus Chemokine (CXCL7) chemiluminescence densitometry, Average (Thymus Chemokine (CXCL7); [4]): 73.0 | Thymus Chemokine (CXCL7) chemiluminescence densitometry, first value (Thymus Chemokine (CXCL7); [4]): 62.8 | Thymus Chemokine (CXCL7) chemiluminescence densitometry, second value (Thymus Chemokine (CXCL7); [4]): 83.2 | induction of thymus chemokine (CXCL7) (Thymus Chemokine (CXCL7); [5]): strongly inhibit | IL-17 (%) (IL-17; [3]): 29.6% | IL-17 chemiluminescence densitometry, Average (IL-17; [4]): 36.7 | IL-17 chemiluminescence densitometry, first value (IL-17; [4]): 6.1 | IL-17 chemiluminescence densitometry, second value (IL-17; [4]): 67.2 | induction of IL-17 (IL-17; [5]): strongly inhibit | sICAM-1 (CD54) (%) (sICAM-1 (CD54); 3 hours, (+) alone = 100.0): 68.4% | sICAM-1 (CD54) chemiluminescence densitometry, Average (sICAM-1 (CD54); medium at 3 hours): 257.3 | sICAM-1 (CD54) chemiluminescence densitometry, first value (sICAM-1 (CD54); medium at 3 hours): 250.3 | sICAM-1 (CD54) chemiluminescence densitometry, second value (sICAM-1 (CD54); medium at 3 hours): 264.3 | MIG (CXCL9) (%) (MIG (CXCL9); 3 hours, (+) alone = 100.0): 86.8% | MIG (CXCL9) chemiluminescence densitometry, Average (MIG (CXCL9); medium at 3 hours): 666.4 | MIG (CXCL9) chemiluminescence densitometry, first value (MIG (CXCL9); medium at 3 hours): 672.8 | MIG (CXCL9) chemiluminescence densitometry, second value (MIG (CXCL9); medium at 3 hours): 660.1 | Fractakine (CX3CL1) (%) (Fractalkine (CX3CL1); [3]): 42.7% | Fractakine (CX3CL1) chemiluminescence densitometry, Average (Fractalkine (CX3CL1); [4]): 310.1 | Fractakine (CX3CL1) chemiluminescence densitometry, first value (Fractalkine (CX3CL1); [4]): 287.0 | Fractakine (CX3CL1) chemiluminescence densitometry, second value (Fractalkine (CX3CL1); [4]): 333.3 | induction of fractalkine (CX3CL1) (Fractalkine (CX3CL1); [5]): strongly inhibit | CINC-2α/β (%) (CINC-2α/β; 3 hours, (+) alone = 100.0): 96.8% | CINC-2α/β chemiluminescence densitometry, Average (CINC-2α/β; medium at 3 hours): 5839.6 | CINC-2α/β chemiluminescence densitometry, first value (CINC-2α/β; medium at 3 hours): 5944.2 | CINC-2α/β chemiluminescence densitometry, second value (CINC-2α/β; medium at 3 hours): 5735.0

COc1cc2oc(-c3ccccc3)cc(=O)c2c(O)c1O [negletein, reference compound]
IC50 ([2]; nitrite by Griess method, read-out: IC50 value (drug concentration at NO production of 50%)): 16.3 µM | production of NO due to IL-1β ([2]; negletein 10, 20, 40 μM): dose-dependently inhibited

— US9573920B2, “Compound, medicine, anti-inflammatory, cosmetic, food and drink, and method for producing compound” (Amino Up Chemical Co., Ltd., priority 2013, dated 2017)
